Patent publication US5703056A, “Non-invasive imaging of gene transfer” (priority 1995, dated 1997)
Read-outs that look alike come from different tables or passages of the source.

Tests used:
HSV1-TK [1] = target: T1, HSV1-TK (Human alphaherpesvirus 1 strain 17, UniProt P0DTH5); assay: Accumulation of radiolabelled marker substrates in RG2TK+ transduced and RG2 wild-type cells, normalized to TdR; assay type: cell-based, herpes simplex virus
Experimental: Source of radiolabelled "marker substrates". […] No carrier-added 5-[^123 I]-deoxyuridine (IUdR) was prepared by reacting 2-deoxyuridine (UdR) with carrier-free ^123 I-labelled sodium iodide in an iodogen coated reaction vial.
Comparison of "marker substrates" for identifying HSV1-tk gene expression in tissue culture. […] Each of these substrates were developed for or used as an anti-viral agent; they are phosphorylated by HSV1-TK and can be radiolabelled for noninvasive imaging.
Wild-type (nontransduced) RG2 cells were studied as a reference control. […] The cells were dislodged from the Petri dishes with a soft scraper, poured into 15 ml conical tubes, centrifuged and the medium aspirated. The tubes were cut to facilitate removing cells; they were blotted, placed in pre-weighed vials, weighed and prepared for counting. Samples were assayed for ^3 H- and ^14 C-radioactivity using a Packard B1600 TriCarb beta spectrometer using dual-channel and external standard splash and quench correction techniques. The medium was also counted before and following incubation. The data was expressed as a harvested cell-to-medium concentration ratio (dpm/g cells.div.dpm/ml medium).
(§1) Data analysis. […] These two related measures are useful to evaluate the intensity of the images (e.g., high "sensitivity") and the ability to differentiate between HSV1-TK and endogenous-TK in the images (e.g., high "selectivity"). The "selectivity" measure is not interpreted as a relative sensitivity (i.e., a value of 1 indicating equal sensitivity) of the substrate to HSV1-TK vs. endogenous-TK. […] They are intended for the direct comparison of substrates only.

HSV1-TK [2] = target: T1, HSV1-TK; assay: Single 120 minute paired accumulation of FIAU and IUdR by RG2TK+ and RG2 cells; assay type: cell-based, herpes simplex virus; details: Data from FIG. 6A
Experimental: The processing of cells and incubation medium was the same as that described above. A portion of the harvested cells was also processed for acid-insoluble (10% TCA) radioactivity. Decay corrected ^123 I-radioactivity was measured in a Packard AutoGamma 5550 Spectrometer. Samples were stored for 1 week to allow for ^123 I decay (12 half lives), and recounted afterwards in the Packard B1600 TriCarb beta spectrometer to determine ^3 H- and ^14 C-radioactivity.
All radioactivity measurements were expressed as a percent of administered dose per gram of tissue or per unit volume of fluid as described above.
as §1

RG2TK+ and RG2 tumors [3] = assay: Tissue sampling of FIAU- and IUdR-derived radioactivity in i.c. and s.c. RG2TK+ and RG2 tumors; assay type: in vivo, rat; details: 24 h, percent dose per gram
Experimental: Animal preparation and tumor inoculation Two male Fisher 344 rats weighing 250±20 g were anesthetized with a gas mixture consisting of 2% Isoflurane, 70% nitrous oxide and 30% oxygen. A 2% lidocaine gel was applied to the ears and the head was fixed with a stereotaxic device. After midline scalp incision, a burr hole was made through the skull 1 mm posterior and 3 mm lateral to the bregma. The tumor cell suspensions were aspirated into a 50 μl gas tight Hamilton syringe (Ga. 25) and attached to a stereotaxic device. The syringe needle was then inserted 6 mm deep into the caudate nucleus and the cell suspension (10^5 cells in 10 μl) was slowly injected over 2 minutes. RG2TK+ cells were injected into the left hemisphere, and RG2 cells were injected into the right hemisphere. Bone wax was applied to cover the skull defect and the scalp was closed with 4.0 silk suture. Subcutaneous inoculations (10^6 cells in 50 μl) were also performed (RG2TK+ cells into the left flank and RG2 cells into the right flank). After the procedure, the animals were marked and placed in standard cages with water and Rodent LabChow #5001 (Purina Mills, Inc.) ad libitum. Comparison of different "marker substrates" for identifying HSV1-TK expression in animals After 10 days of tumor growth, both animals received i.v. injections of [^123 I]-IUdR (400 uCi) and [^14 C]-FIAU (10 uCi). Radioactivity was allowed to clear from the body over 24 hours to reduce tissue background activity, predominantly due to radiolabelled iodide, the major metabolite of [^123 I]-IUdR. [Tjuvajev, J. G., Muraki, A., Ginos, J., Berk, J., Koutcher, J., Ballon, D., Beattie, B., Finn, R., and Biasberg, R., J. Nucl. Med., 34: 1152-62, 1993; Tjuvajev, J. G., Macapinlac, H. A., Daghighian, F., Scott, A. M., ginos, J. Z., Finn, R. D., Kothari, P., Desai, R., Zhang, Z., Beattie, B., Graham, M., Larson, S., and Blasberg, R. G., J. Nucl. Med., 35: 1407-17, 1994] The rats were killed at 24 hours under anesthesia; samples of tumor and adjacent tissue were disected and weighed, blood and plasma were obtained, and radioactivity was measured. Decay corrected ^123 I-radioactivity was assayed in a Packard AutoGamma 5550 Spectrometer; samples were stored in a refrigerator for 1 week to allow for ^123 I decay (>12 half lives) and ^14 C-radioactivity was measured in a Packard B1600 TriCarb beta spectrometer using external standard quench correction. Sample radioactivity was expressed as a percent of administered dose per gram of tissue of per unit volume of fluid.

[4] = Quantitative autoradiography of 2-[14C]-FIAU in i.c. RG2TK+ and RG2 tumors; assay type: in vivo, rat; details: rat, iv, 50 uCi
Experimental: (§2) Two rats were prepared with i.c. RG2TK+ and RG2 tumors as described above. […] The brain was rapidly extracted and frozen in preparation for cryosectioning and quantitative autoradiography (QAR). [Blasberg, Seminars in Neurology] […] To convert the x-ray images to tissue radioactivity (nCi/g), the optical density of the standards was measured by computerized image analysis. A standard curve that relates mean optical density and tissue radioactivity was generated for each film. […]

RG2TK+ and RG2 tumors [5] = assay: as above; assay type: in vivo, rat; details: for Sensitivity* Δ(substrate % dose/g)/Δ(HSV1TK mRNA/S28 RNA IOD): autoradiographic data
Experimental: as §2

[6] = cited from earlier work

T1 sequence (P0DTH5 whole entry): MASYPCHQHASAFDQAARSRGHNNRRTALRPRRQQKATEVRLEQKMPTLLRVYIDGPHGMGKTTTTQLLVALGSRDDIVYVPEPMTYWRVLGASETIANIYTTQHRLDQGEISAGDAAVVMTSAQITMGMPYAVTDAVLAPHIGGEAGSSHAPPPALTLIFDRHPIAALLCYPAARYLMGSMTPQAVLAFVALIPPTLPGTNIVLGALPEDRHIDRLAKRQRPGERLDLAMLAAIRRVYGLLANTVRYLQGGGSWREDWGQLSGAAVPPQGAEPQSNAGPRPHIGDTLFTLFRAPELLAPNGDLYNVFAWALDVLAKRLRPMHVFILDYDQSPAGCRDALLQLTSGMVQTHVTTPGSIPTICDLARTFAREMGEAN

O=c1[nH]c(=O)n([C@@H]2O[C@H](CO)[C@@H](O)[C@@H]2F)cc1I [FIAU, 2'-fluoro-5-iodo-1-β-D-arabinofuranosyl-uracil]
Sensitivity* Δ(substrate/TdR)/Δ(HSV1TK mRNA/S28 RNA IOD) (HSV1-TK [1]; Data from FIG. 5): 0.0090
Sensitivity* Δ(substrate/TdR)/Δ(HSV1TK mRNA/S28 RNA IOD) (HSV1-TK [1]; Data from FIG. 7B (different RG2TK cell lines)): 0.0086
Sensitivity* Δ(substrate/TdR)/Δ(HSV1TK mRNA/S28 RNA IOD) (HSV1-TK [2]): 0.0105
Sensitivity* (uptake in RG2TK+ tumor - uptake in RG2 tumor)/(HSV1TK mRNA/S28 RNA IOD in RG2TK+ cells) (RG2TK+ and RG2 tumors [3]; RG2TK+/RG2 i.c. tumors): 0.0025
Sensitivity* (uptake in RG2TK+ tumor - uptake in RG2 tumor)/(HSV1TK mRNA/S28 RNA IOD in RG2TK+ cells) (RG2TK+ and RG2 tumors [3]; RG2TK+/RG2 s.c. tumors): 0.0150
tissue uptake at 24 h ([4]; brain, 24 h, level of detection on the autoradiograms, read-out: adjacent brain activity): < 0.005 %ID/g
tissue uptake at 24 h ([4]; i.c. rg2tk+ tumor, i.c. RG2TK+ tumor, 24 h, read-out: peak activity): 0.43 %ID/g
tissue uptake at 24 h ([4]; intracerebral tumor, i.c. RG2TK+ tumor, 24 h after 50 uCi 2-[14C]-FIAU i.v., read-out: mean activity): 0.18 ± 0.14 %ID/g
difference in radioactivity localized to transduced compared to non-transduced tumor (RG2TK+ and RG2 tumors [5]; 4 hours after tracer, RG2TK#16 vs RG2 i.c., non-rinsed autoradiogram): only a small difference
Sensitivity* Δ(substrate % dose/g)/Δ(HSV1TK mRNA/S28 RNA IOD) (RG2TK+ and RG2 tumors [5]; RG2TK#16/RG2 i.c. tumors): 0.0058
Sensitivity* Δ(substrate % dose/g)/Δ(HSV1TK mRNA/S28 RNA IOD) (RG2TK+ and RG2 tumors [5]; RG2TK+/RG2 i.c. tumors): 0.0039
peak activity (RG2TK+ and RG2 tumors [5]; i.c. RG2TK+ tumor, 24 h): 0.43 % dose/g
organ damage in clinical trial ([6]; human, in vivo): severe liver and pancreatic damage
dose-limiting toxicity ([6]; pharmacologic doses): dose-limiting gastrointestinal, hematologic and neurotoxicity
